Experimental data: patent US8653096B2, “Chemokine receptor antagonists and methods of use thereof” (Millennium Pharmaceuticals, Inc., priority 2001, dated 2014)
Read-outs that look alike come from different tables or passages of the source.

Target: T1, RANTES/MIP-1α chemokine receptor (CCR1) in THP-1 cell membranes (Homo sapiens, UniProt P32246)
T1 construct: Membranes were prepared from THP-1 cells (ATCC #TIB202); host or cells: THP-1 cells (membrane preparation)
T1 sequence (P32246 1-355): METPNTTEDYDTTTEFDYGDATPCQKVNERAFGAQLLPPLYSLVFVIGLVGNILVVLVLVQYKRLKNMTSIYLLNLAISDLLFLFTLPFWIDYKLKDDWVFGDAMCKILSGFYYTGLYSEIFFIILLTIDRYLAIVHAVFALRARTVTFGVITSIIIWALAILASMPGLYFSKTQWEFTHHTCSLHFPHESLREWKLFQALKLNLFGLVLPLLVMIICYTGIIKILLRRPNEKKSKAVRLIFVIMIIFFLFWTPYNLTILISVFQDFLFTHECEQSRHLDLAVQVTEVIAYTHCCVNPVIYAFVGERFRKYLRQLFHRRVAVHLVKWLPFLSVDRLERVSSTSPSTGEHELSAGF
Experiment: Receptor binding assay: 125I-RANTES or 125I-MIP-1α binding to THP-1 cell membranes

[1] = inhibitor concentration required for 50% inhibition of specific binding, 125I-RANTES or 125I-MIP-1α as ligand, THP-1 cell membranes, read-out: IC50

Compound | IC50 [1] [µM] | IC50 [µM]
CCN(Cc1ccc(Cl)cc1)[C@@H]1CCN(CCC=C2c3cc(C(=O)O)ccc3OCc3ncccc32)C1 [Example 527, (R)-5-(3-{3-[(4-Chloro-benzyl)-ethyl-amino]-pyrrolidin-1-yl}-propylidene)-5,11-dihydro-10-oxa-1-aza-dibenzo[a,d]cycloheptene-7-carboxylic acid] | < 1 | 
CCN(CCc1ccc(Cl)cc1)[C@@H]1CCN(CCC=C2c3cc(C(C)(C)O)ccc3OCc3ncccc32)C1 [Example 528] | < 10 | 
CC(C)(O)c1ccc2c(c1)C(=CCCN1CC[C@H](OCc3ccc(Cl)cc3)C1)c1cccnc1CO2 [Example 529, (S)-2-(5-{3-[3-(4-Chloro-benzyloxy)-pyrrolidin-1-yl]-propylidene}-5,11-dihydro-10-oxa-1-aza-dibenzo[a,d]cyclohepten-7-yl)-propan-2-ol] | < 20 | 
CC(C)(O)c1ccc2c(c1)C(=CCCN1CCC(C(=O)NCc3ccc(Cl)cc3)C1)c1cccnc1CO2 (stereo not drawn) [Example 530] | < 20 | 
CCN(C(=O)C1CCN(CCC=C2c3cc(C(C)(C)O)ccc3OCc3ncccc32)C1)c1ccc(Cl)cc1 (stereo not drawn) [Example 531, 1-{3-[7-(1-Hydroxy-1-methyl-ethyl)-11H-10-oxa-1-aza-dibenzo[a,d]cyclohepten-5-ylidene]-propyl}-pyrrolidine-3-carboxylic acid (4-chloro-phenyl)-ethyl-amide] | < 1 | 
CC(C)(O)c1ccc2c(c1)C(=CCCN1CC[C@@H](N3Cc4ccc(Cl)cc4C3)C1)c1cccnc1CO2 [Example 532] | < 2 | 
CC(C)(O)c1ccc2c(c1)C(=CCCN1CC[C@@H](N(Cc3ccc(Cl)cc3)C(N)=O)C1)c1cccnc1CO2 [Example 533, (R)-1-(4-Chloro-benzyl)-1-(1-{3-[7-(1-hydroxy-1-methyl-ethyl)-11H-10-oxa-1-aza-dibenzo[a,d]cyclohepten-5-ylidene]-propyl}-pyrrolidin-3-yl)urea] | < 10 | 
CC(C)(O)c1ccc2c(c1)C(=CCCN1CC[C@@H](N3CC(=O)Nc4cc(Cl)ccc4C3)C1)c1cccnc1CO2 [Example 534, (R)-8-Chloro-4-(1-{3-[7-(-hydroxy-1-methyl-ethyl)-11H-10-oxa-1-aza-dibenzo[a,d]cyclohepten-5-ylidene]-propyl}-pyrrolidine-3-yl)-1,3,4,5-tetrahydro-benzo[e][1,4]diazepin-2-one] | < 1 | 
CCN1C(=O)CN([C@@H]2CCN(CCC=C3c4cc(C(C)(C)O)ccc4OCc4ncccc43)C2)Cc2ccc(Cl)cc21 [Example 535, (R)-8-Chloro-1-ethyl-4-(1-{3[7-(-hydroxy-1-methyl-ethyl)-11H-10-oxa-1-aza-dibenzo[a,d]cyclohepten-5-ylidene]-propyl}-pyrrolidine-3-yl)-1,3,4,5-tetrahydro-benzo[e][1,4]diazepin-2-one] | < 10 | 
COC(=O)CN(Cc1ccc(Cl)cc1)C1CCN(CCC=C2c3cc(C(C)(C)O)ccc3OCc3ncccc32)C1 (stereo not drawn) [Example 536, [(4-Chloro-benzyl)-(1-{3-[7-(1-hydroxy-1-methyl-ethyl)-11H-10-oxa-1-aza-dibenzo[a,d]cyclohepten-5-ylidene]-propyl}-pyrrolidin-3-yl)-amino]-acetic acid methyl ester] | < 1 | 
CC(C)(O)c1ccc2c(c1)C(=CCCN1CCC(N(CC(=O)O)Cc3ccc(Cl)cc3)C1)c1cccnc1CO2 (stereo not drawn) [Example 537, [(4-Chloro-benzyl)-(1-{3-[7-(1-hydroxy-1-methyl-ethyl)-11H-10-oxa-1-aza-dibenzo[a,d]cyclohepten-5-ylidene]-propyl}-pyrrolidin-3-yl)-amino]-acetic acid] | < 1 | 
CC(C)(O)c1ccc2c(c1)C(=CCCN1CCN(c3ccc(Cl)c(Cl)c3)CC1)c1cccnc1CO2 [Example 538, 2-(5-{3-[4-(3,4-Dichloro-phenyl)-piperazin-1-yl]-propylidene}-5,11-dihydro-10-oxa-1-aza-dibenzo[a,d]cyclohepten-7-yl)-propan-2-ol] | < 10 | 
Cc1cc(Cl)ccc1N1CCN(CCC=C2c3cc(C(C)(C)O)ccc3OCc3ncccc32)CC1 [Example 539, 2-(5-{3-[4-(4-Chloro-2-methyl-phenyl)-piperazin-1-yl]-propylidene}-5,11-dihydro-10-oxa-1-aza-dibenzo[a,d]cyclohepten-7-yl)-propan-2-ol] | < 10 | 
CC(C)(O)c1ccc2c(c1)C(=CCCN1CCN(c3ccc(Cl)cc3C#N)CC1)c1cccnc1CO2 [Example 540, 5-Chloro-2-(4-{3-[7-(1-hydroxy-1-methyl-ethyl)-11H-10-oxa-1-aza-dibenzo[a,d]cyclohepten-5-ylidene]-propyl}-piperazin-1-yl)-benzonitrile] | < 10 | 
COC(=O)c1cc(Cl)ccc1N1CCN(CCC=C2c3cc(C(C)(C)O)ccc3OCc3ncccc32)CC1 [Example 541, 5-Chloro-2-(4-{3-[7-(1-hydroxy-1-methyl-ethyl)-11H-10-oxa-1-aza-dibenzo[a,d]cyclohepten-5-ylidene]-propyl}-piperazin-1-yl)-benzoic acid methyl ester] | < 10 | 
CC(C)(O)c1ccc2c(c1)C(=CCCN1CCC(NC(=O)Cc3ccc(Cl)cc3)CC1)c1cccnc1CO2 [Example 542, 2-(4-Chloro-phenyl)-N-(1-{3-[7-(1-hydroxy-1-methyl-ethyl)-11H-10-oxa-1-azadibenzo[a,d]cyclohepten-5-ylidene]-propyl}-piperidin-4-yl)-acetamide] | < 10 | 
CCN(CCC=C1c2cc(C(C)(C)O)ccc2OCc2ncccc21)CCN(CC)c1ccc(Cl)cc1 [Example 543, 2-{5-[3-({2-[(4-Chloro-phenyl)-ethyl-amino]-ethyl}-ethyl-amino)-propylidene]-5,11-dihydro-10-oxa-1-aza-dibenzo[a,d]cyclohepten-7-yl}-propan-2-ol] | < 10 | 
CC(C)(O)c1ccc2c(c1)C(=CCCN1CCN(c3ccc(Cl)cc3)C(C(N)=O)C1)c1cccnc1CO2 (stereo not drawn) [Example 544, 1-(4-Chloro-phenyl)-4-{3-[7-(1-hydroxy-1-methyl-ethyl)-11H-10-oxa-1-aza-dibenzo[a,d]cyclohepten-5-ylidene]-propyl}-piperazine-2-carboxylic acid amide] | < 10 | 
CC(C)(O)c1ccc2c(c1)C(=CCCN1CCN(c3ccc(Cl)cc3)C(C#N)C1)c1cccnc1CO2 (stereo not drawn) [Example 545, 1-(4-Chloro-phenyl)-4-{3-[7-(1-hydroxy-1-methyl-ethyl)-11H-10-oxa-1-aza-dibenzo[a,d]cyclohepten-5-ylidene]-propyl}-piperazine-2-carbonitrile] | < 10 | 
COC(=O)C1CN(CCC=C2c3cc(C(C)(C)O)ccc3OCc3ncccc32)CCN1c1ccc(Cl)cc1 (stereo not drawn) [Example 546, 1-(4-Chloro-phenyl)-4-{3-[7-(1-hydroxy-1-methyl-ethyl)-11H-10-oxa-1-aza-dibenzo[a,d]cyclohepten-5-ylidene]-propyl}-piperazine-2-carboxylic acid methyl ester] | < 1 | 
CC(C)NC(=O)Oc1ccc2c(c1)C(=CCCN1CCC(O)(c3ccc(Cl)cc3)C(C)(C)C1)c1cccnc1CO2 (stereo not drawn) [Example 547, Isopropyl-carbamic acid 5-{3-[4-(4-chloro-phenyl)-4-hydroxy-3,3-dimethyl-piperidin-1-yl]-propylidene}-5,11-dihydro-10-oxa-1-aza-dibenzo[a,d]cyclohepten-7-yl ester] |  | < 1
CCN(C(=O)Nc1ccc(Cl)cc1)C1CCN(CCC=C2c3cc(C(C)(C)O)ccc3OCc3ncccc32)C1 (stereo not drawn) [Example 548, 3-(4-Chloro-phenyl)-1-ethyl-1-(1-{3-[7-(1-hydroxy-1-methyl-ethyl)-11H-10-oxa-1-aza-dibenzo[a,d]cyclohepten-5-ylidene]-propyl}-pyrrolidin-3-yl)-urea] | < 10 | 
CC(C)(O)c1ccc2c(c1)C(=CCCN1CCC(OCc3ccc(Cl)cc3)C1)c1cccnc1CO2 (stereo not drawn) [Example 549, 2-(5-{3-[3-(4-Chloro-benzyloxy)-pyrrolidin-1-yl]-propylidene}-5,11-dihydro-10-oxa-1-aza-dibenzo[a,d]cyclohepten-7-yl)-propan-2-ol] | < 1 | 
CC(C)CN(Cc1ccc(Cl)cc1)C1CCN(CCC=C2c3cc(C(C)(C)O)ccc3OCc3ncccc32)C1 (stereo not drawn) [Example 550, 2-[5-(3-{3-[(4-Chloro-benzyl)-isobutyl-amino]-pyrrolidin-1-yl}-propylidene)-5,11-dihydro-10-oxa-1-aza-dibenzo[a,d]cyclohepten-7-yl]-propan-2-ol] | < 1 | 
CC(C)N(Cc1ccc(Cl)cc1)C1CCN(CCC=C2c3cc(C(C)(C)O)ccc3OCc3ncccc32)C1 (stereo not drawn) [Example 551, 2-[5-(3-{3-[(4-Chloro-benzyl)-isopropyl-amino]-pyrrolidin-1-yl}-propylidene)-5,11-dihydro-10-oxa-1-aza-dibenzo[a,d]cyclohepten-7-yl]-propan-2-ol] | < 1 | 
CC(C)(O)c1ccc2c(c1)C(=CCCN1CCC(N(CC(N)=O)Cc3ccc(Cl)cc3)C1)c1cccnc1CO2 (stereo not drawn) [Example 552, 2-[(4-Chloro-benzyl)-(1-{3-[7-(1-hydroxy-1-methyl-ethyl)-11H-10-oxa-1-azadibenzo[a,d]cyclohepten-5-ylidene]-propyl}-pyrrolidin-3-yl)-amino]-acetamide] | < 1 | 
CCNC(=O)CN(Cc1ccc(Cl)cc1)C1CCN(CCC=C2c3cc(C(C)(C)O)ccc3OCc3ncccc32)C1 (stereo not drawn) [Example 553, 2-[(4-Chloro-benzyl)-(1-{3-[7-(1-hydroxy-1-methyl-ethyl)-11H-10-oxa-1-aza-dibenzo[a,d]cyclohepten-5-ylidene]-propyl}-pyrrolidin-3-yl)-amino]-N-ethyl-acetamide] | < 1 | 
